US5591756A, “LTB4 synthesis inhibitors” (G. D. Searle & Co., priority 1995, dated 1997)

Experiments:
[1] = target: T1, Human synovial fluid phospholipase A2 (HSF-PLA2) (Homo sapiens, UniProt P14555); test: Human synovial fluid phospholipase A2 (HSF-PLA2) assay; assay type: biochemical; settings: [14C]-oleate-labeled E. coli substrate, pH 7.0, 5 min pre-incubation, 37° C., 30 minutes
T1 construct: Human synovial fluid phospholipase A2 was purified approximately 5000 fold; from tissue; host or cells: human synovial fluid (enzyme purified about 5000 fold)
T1 sequence (P14555 21-144): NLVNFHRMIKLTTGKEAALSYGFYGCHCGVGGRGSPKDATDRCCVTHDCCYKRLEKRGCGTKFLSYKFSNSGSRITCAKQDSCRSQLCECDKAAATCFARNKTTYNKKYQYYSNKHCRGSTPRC
Method: Human synovial fluid phospholipase A2 was purified approximately 5000 fold following the procedures of Franson et al., Lung 160, 275-284 (1982) and Fawzy et al., Bio Phys. J. 49, 533a (1986). Following purification the enzyme activity was measured by established methodology using [^14 C]-oleate-labeled, autoclaved E. coli as the substrate as also shown in the above noted references. The assay was performed in a final volume of 100 μl containing 50 mM HEPES (pH 7.0), 150 mM NaCl, 5 mM CaCl2, 7 nM [^14 C]-oleate-labeled E. coli phospholipid and with or without the compound from one of the examples herein undergoing an assay. The compound or control vehicle was pre-incubated with the PLA2 for 5 minutes followed by addition of the E. coli substrate to initiate the reaction. The reaction was maintained at 37° C. for 30 minutes and then terminated by the addition of 2 ml tetrahydrofuran (THF). The reaction product, [^14 C]-oleic acid, was extracted using a 1 ml Bond Elut-NH2 Solid phase extraction column. The IC50 value for the compound (mean±S.E.) is given in the following Table and represents the concentration of the compound required to inhibit 50% of the PLA2 activity.

[2] = tested on: LTB4 Biosynthesis, HL-60 cells; test: Assay for LTB4 (and PGE2) production by HL-60 cells; assay type: cell-based; settings: Homo sapiens; differentiated HL-60 cells, 10 min pre-incubation 37° C., stimulated with 5×10^-6 M calcium ionophore A23187, radioimmunoassay; read-out: LTB4 Biosynthesis inhibition cells IC50, HL60 Cells
Method: HL-60 cells were induced to differentiate into granulocytes by a 4 day incubation with 0.8% (v/v) N,N-dimethyl formamide as disclosed in Fontana et al., Proc. Natl. Acad. Sci. 78. (6): 3863-3866 (1981); Agins et al., Biochem. Biophys. Res. Comm. 126, 143-149 (1985); and Bonser et al., Biochemistry 20: 5297-5301 (1981). Prior to performing the assay, differentiated HL-60 cells were washed once with Hanks' balanced salt solution containing 0.35 mg/ml sodium bicarbonate and 10 mM HEPES pH 7.35 (HBSS). HL-60 cells (3×10^6 cells/ml) were pre-incubated with the compound tested or a control vehicle at 37° C. for 10 minutes, followed by 5 minute incubation with 5×10^-6 M calcium ionophore A23187 in a final volume of 1.0 ml. After incubation, the cells were pelleted by centrifugation and the LTB4 and PGE2 in the supernatent were quantified by radioimmunoassay. IC50 values (means±S.E.) for compounds herein that were tested are shown in the following Table and represent the concentrations of the compound required to inhibit 50% of LTB4 or PGE2 production by HL-60 cells stimulated with the calcium ionophore A23187.

[3] = tested on: LTB4 Biosynthesis, Human PMNs; test: LTB4 biosynthesis inhibition in human PMNs; assay type: cell-based; settings: read-out: LTB4 Biosynthesis inhibition cells IC50, Human PMNs

| SMILES | IC50 [1] | IC50 [2] | IC50 [3] |
| --- | --- | --- | --- |
| CCCCCCCCCCCCCC(=O)CC(=O)c1ccc(C(=O)O)cc1 [Example 4, 4-(1,3-dioxohexadecanyl)benzoic acid] | 90 µM | – | – |
| CCCCCCCCCCCCCC(=O)CC(=O)c1cccc(C(=O)O)c1 [Example 5, 3-(1,3-dioxohexadecanyl)benzoic acid] | 1.7 µM | 1.5 µM | 1.2 µM |
| CCCCCCCCCCCCCC(=O)CC(=O)c1ccc(C(=O)O)o1 [Example 9, 5-(1,3-dioxohexadecanyl)-2-furancarboxylic acid] | 2.7 µM | 4.7 µM | 3.5 µM |
| CCCCCCCCCCCCCC(=O)CC(=O)c1ccc(C(=O)O)s1 [Example 15, 5-(1,3-dioxohexadecyl)-2-thiophenecarboxylic acid] | 1.9 µM | – | 2.7 µM |
| CCCCCCCCCCCCCC(=O)CC(=O)c1cccc(-c2nnn[nH]2)c1 [Example 19, 1-[3-(1H-tetrazol-5-yl)phenyl]-1,3-hexadecadione] | 48 µM | – | 3 µM |
| O=C(CCCCCCCCCOc1ccccc1)CC(=O)c1ccc(C(=O)O)cc1 [Example 22, 4-(1,3-dioxo-12-phenoxydodecyl)benzoic acid] | 16 µM | – | 2.7 µM |
